From ChEMBL document CHEMBL1201862, “PubChem BioAssay data set” (2004)
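Five compound concentrations were applied to cells in 96-well plates for 48 hours; endpoints were derived by simple linear interpolation of the resulting dose-response curve. Here, GI50 denotes the concentration required for 50% inhibition of growth.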 The source made the active and inactive calls. No stated cut-off is given here; in the data, active = GI50 up to about 1.1 µM and inactive = higher.

Tests used:
Experiment in all cases: DTP human tumour cell line panel, 48 h
[1] = tested on: NCI-H460
[2] = tested on: SK-MEL-28
[3] = tested on: SF-539
[4] = tested on: BT-549
[5] = tested on: HCC 2998
[6] = tested on: EKVX
[7] = tested on: ACHN
[8] = tested on: HT-29
[9] = tested on: M14
[10] = tested on: SNB-19
[11] = tested on: RPMI-8226
[12] = tested on: HL-60
[13] = tested on: NCI-H522
[14] = tested on: KM12
[15] = tested on: HOP-62
[16] = tested on: HOP-92
[17] = tested on: SK-OV-3
[18] = tested on: OVCAR-8
[19] = tested on: OVCAR-4
[20] = tested on: PC-3
[21] = tested on: MCF7
[22] = tested on: UACC-62
[23] = tested on: SN12C
[24] = tested on: A498
[25] = tested on: MDA-MB-435
[26] = tested on: SF-295
[27] = tested on: TK-10
[28] = tested on: U-251
[29] = tested on: SW-620
[30] = tested on: K562
[31] = tested on: UO-31
[32] = tested on: SK-MEL-5
[33] = tested on: 786-0
[34] = tested on: MOLT-4
[35] = tested on: SNB-75
[36] = tested on: COLO 205
[37] = tested on: NCI/ADR-RES
[38] = tested on: A549
[39] = tested on: LOX IMVI
[40] = tested on: MDA-MB-231
[41] = tested on: HCT-15
[42] = tested on: OVCAR-3
[43] = tested on: SR
[44] = tested on: UACC-257
[45] = tested on: Hs-578T
[46] = tested on: OVCAR-5
[47] = tested on: SF-268
[48] = tested on: HCT-116
[49] = tested on: SK-MEL-2
[50] = tested on: IGROV-1
[51] = tested on: CCRF-CEM
[52] = tested on: T47D
[53] = tested on: DU-145
[54] = tested on: CAKI-1
[55] = tested on: MDA-N
[56] = tested on: NCI-H23
[57] = tested on: Malme-3M

With `O=C1CSC(c2ccc(Cl)cc2)N1c1ccc(-c2ccc(-n3c(-c4ccccc4)nc4ccccc4c3=O)cc2)cc1` (configuration not stated) the GI50 [1] was 67.1 µM (inactive), the GI50 [2] was 41.1 µM (inactive) and the GI50 [3] was 24.1 µM (inactive). The GI50 [4] was 19 µM (inactive), the GI50 [5] was 93.5 µM (inactive) and the GI50 [6] was 56.9 µM (inactive). The GI50 [7] was 58.6 µM (inactive), the GI50 [8] was 15.2 µM (inactive) and the GI50 [9] was 43.6 µM (inactive). The GI50 [10] was 38.5 µM (inactive), the GI50 [11] was 55.7 µM (inactive) and the GI50 [12] was > 100 µM (inactive). For the same molecule, the GI50 [13] was 25.2 µM (inactive), the GI50 [14] was 26.2 µM (inactive) and the GI50 [15] was 61.4 µM (inactive). The GI50 [16] was 11.4 µM (inactive), the GI50 [17] was 31.1 µM (inactive) and the GI50 [18] was 54.8 µM (inactive). For the same molecule, the GI50 [19] was 19.3 µM (inactive), the GI50 [20] was 26.1 µM (inactive) and the GI50 [21] was 30.7 µM (inactive). The GI50 [22] was 20.2 µM (inactive), the GI50 [23] was 68.1 µM (inactive) and the GI50 [24] was 51.2 µM (inactive). The GI50 [25] was 27.4 µM (inactive), the GI50 [26] was 37.5 µM (inactive) and the GI50 [27] was 69 µM (inactive). The GI50 [28] was 21.8 µM (inactive), the GI50 [29] was 11.8 µM (inactive) and the GI50 [30] was 37.2 µM (inactive). For the same molecule, the GI50 [31] was 10.6 µM (inactive), the GI50 [32] was 24.2 µM (inactive) and the GI50 [33] was 27.4 µM (inactive). The GI50 [34] was 17.7 µM (inactive), the GI50 [35] was 4 µM (inactive) and the GI50 [36] was 27.8 µM (inactive). The GI50 [37] was 20 µM (inactive), the GI50 [38] was 37.5 µM (inactive) and the GI50 [39] was 17.7 µM (inactive). For the same molecule, the GI50 [40] was 38.8 µM (inactive), the GI50 [41] was 33.2 µM and the GI50 [42] was > 100 µM (inactive). The GI50 [43] was 28.2 µM (inactive), the GI50 [44] was > 100 µM (inactive) and the GI50 [45] was 28.8 µM (inactive). For the same molecule, the GI50 [46] was > 10 µM (inactive), the GI50 [47] was 21.6 µM (inactive) and the GI50 [48] was 24.8 µM (inactive). For the same molecule, the GI50 [49] was 51.5 µM (inactive), the GI50 [50] was 19 µM (inactive) and the GI50 [51] was 30.6 µM (inactive). The GI50 [52] was 13.8 µM (inactive), the GI50 [53] was 49.1 µM (inactive) and the GI50 [54] was 29.4 µM (inactive). For the same molecule, the GI50 [55] was 32.1 µM (inactive), the GI50 [56] was 34.1 µM (inactive) and the GI50 [57] was 28.4 µM (inactive).
